Measurements reported in patent EP0326331B1, “Substituted quinolines and cinnolines” (Dow AgroSciences LLC, priority 1988, dated 1989).
Where two headings read alike, the source gives them in different places.

Tests used:
[1] = test system: Twospotted spider mites (Tetranychus urticae Koch); experiment: Mite/insect screen, SM; assay type: in vivo; conditions: for mortality at 200 ppm / mortality at 400 ppm: Tetranychus urticae, read-out: SM RESULTS %; for mortality at 200 ppm / SM RESULTS % / mortality at 400 ppm: percent mortality; for activity as miticides: summary statement in the description
Summary of the method: (§1)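 Activity is expressed as percent mortality at the indicated spray concentrations. Plants are sprayed to runoff on upper and lower leaf surfaces with aqueous dilutions of an acetone/alcohol emulsifiable formulation, then dried for one hour.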

plant pathogens = experiment: Fungicidal efficacy against a broad spectrum of plant pathogens (summary of screen); assay type: in vivo; conditions: summary statement in the description
[2] = test system: Cercospora beticola (leaf spot); experiment: Test 1 greenhouse foliar spray screen, leaf spot on sugar beet; assay type: in vivo; conditions: for LEAF SPOT: disease control rating, foliar spray on sugar beet, 400 ppm (+++ at 100 ppm); for pest or weed control at 400 ppm: Cercospora beticola, Test 1, foliar spray on sugar beet, disease control rating at 400 ppm / 100 ppm
corn rootworm = experiment: Mite/insect screen, CRW; assay type: in vivo; conditions: percent mortality; for mortality at 12 ppm / mortality at 24 ppm: read-out: CRW RESULTS %
Summary of the method: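 Each compound, taken up in an emulsifier-containing acetone/alcohol mixture and diluted in water to the stated concentrations, was assessed for percent kill following standard exposure times.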

[3] = test system: Septoria tritici (leaf blotch); experiment: Test 1 greenhouse foliar spray screen, leaf blotch on wheat; assay type: in vivo; conditions: for LEAF BLOT: disease control rating, foliar spray on wheat, 400 ppm (+++ at 100 ppm); for pest or weed control at 400 ppm: Zymoseptoria tritici, Test 1, foliar spray on wheat, disease control rating at 400 ppm / 100 ppm, read-out: LEAF BLOT
[4] = test system: melon aphids (Aphis gossypii Glover); experiment: Mite/insect screen, MA; assay type: in vivo; conditions: percent mortality; for mortality at 200 ppm / mortality at 400 ppm: Aphis gossypii, read-out: MA RESULTS %
Summary of the method: as §1

[5] = test system: Puccinia recondita tritici (leaf rust); experiment: Test 1 greenhouse foliar spray screen, leaf rust on wheat; assay type: in vivo; conditions: for LEAF RUST: disease control rating, foliar spray on wheat, 400 ppm (+++ at 100 ppm); for pest or weed control at 400 ppm: Puccinia recondita, foliar, Test 1, foliar spray on wheat, disease control rating at 400 ppm / 100 ppm
[6] = test system: Erysiphe graminis tritici (powdery mildew); experiment: Test 1 greenhouse foliar spray screen, powdery mildew on wheat; assay type: in vivo; conditions: for POWD MDEW: disease control rating, foliar spray on wheat, 400 ppm (+++ at 100 ppm); for pest or weed control at 400 ppm: Blumeria graminis, foliar, Test 1, foliar spray on wheat, disease control rating at 400 ppm / 100 ppm, read-out: POWD MDEW
[7] = test system: Venturia inaequalis (apple scab); experiment: Test 1 greenhouse foliar spray screen, apple scab on apple seedling; assay type: in vivo; conditions: for APPL SCAB: disease control rating, foliar spray on apple seedling, 400 ppm (+++ at 100 ppm); for pest or weed control at 400 ppm: Venturia inaequalis, Test 1, foliar spray on apple seedling, disease control rating at 400 ppm / 100 ppm, read-out: APPL SCAB
[8] = test system: Pseudoperonospora cubensis (downy mildew); experiment: Test 1 greenhouse foliar spray screen, downy mildew on squash; assay type: in vivo; conditions: for DOWN MDEW: disease control rating, foliar spray on squash, 400 ppm (+++ at 100 ppm); for activity against downy mildew: summary statement in the description; for pest or weed control at 400 ppm: Pseudoperonospora cubensis, foliar, Test 1, foliar spray on squash, disease control rating at 400 ppm / 100 ppm, read-out: DOWN MDEW
[9] = test system: Botrytis cinerea (gray mold); experiment: Test 1 greenhouse foliar spray screen, gray mold on grape berries; assay type: in vivo; conditions: for GRAY MOLD: disease control rating, spray on grape berries, 400 ppm (+++ at 100 ppm); for pest or weed control at 400 ppm: Botrytis cinerea, foliar, Test 1, spray on grape berries, disease control rating at 400 ppm / 100 ppm
[10] = test system: Pyricularia oryzae (rice blast); experiment: whole plant or invertebrate; assay type: in vivo; conditions: for RICE BLAST: disease control rating, foliar spray on rice, 400 ppm (+++ at 100 ppm); for activity against rice blast: summary statement in the description; for pest or weed control at 400 ppm: Pyricularia oryzae, foliar, read-out: RICE BLAST, Test 1, foliar spray on rice, disease control rating at 400 ppm / 100 ppm
[11] = test system: southern armyworm (Spodopetra eridania Cramer); experiment: Mite/insect screen, SAW; assay type: in vivo; conditions: Spodoptera eridania, percent mortality, read-out: SAW RESULTS %; for mortality at 200 ppm: rate 200 ppm
Summary of the method: as §1

CUCURBIT DOWNY MILDEW = experiment: Greenhouse combination test with known fungicide, foliar spray; conditions: 1-9 rating scale, time 4 hours
Method: (§2) The test compounds were formulated for application by dissolving 50 mg of the compound into 1.25 ml of solvent. The solvent was prepared by mixing 50 ml of "Tween 20" with 475 ml of acetone and 475 ml of ethanol. The solvent/compound solution was diluted to 125 ml with deionized water. The resulting formulation contains 400 ppm test chemical. Lower concentrations were obtained by serial dilution with the solvent-surfactant mixture.
(§3) The formulated technical compounds were sprayed on all foliar surfaces of the host plants (or cut berry) to past run-off. Single pots of each host plant were placed on raised, revolving pedestals in a fume hood. Test solutions were sprayed on all foliar surfaces. All treatments were allowed to dry and the plants were inoculated with the appropriate pathogens within 2-4 hours.
(§4) In the tables, the time given under "Time in hours" is the number of hours elapsing between treatment and inoculation. […] In such cases, curative activity was being tested. […] In such cases, residual or protectant activity was tested. […] The results were evaluated on a 1-9 rating scale. These ratings represent the following percent disease control: 1 = 0-19%, 2 = 20-29%, 3 = 30-39%, 4 = 40-59%, 5 = 60-74%, 6 = 75-89%, 7 = 90-96%, 8 = 97-99%, and 9 = 100%.

CUCURBIT POWDERY MILDEW = experiment: as above; conditions: 1-9 rating scale, time 4 hours
Method: as §2, §3, §4

[12] = foliar, rate 200 ppm, foliar spray on squash
[13] = foliar, rate 400 ppm, foliar spray on squash

Compound	activity against a broad spectrum of plant pathogens (plant pathogens)	mortality at 200 ppm [1, 12] [%]	pest or weed control at 400 ppm [2] [%]	mortality at 12 ppm (corn rootworm; CRW rate 12.00 ppm) [%]	pest or weed control at 400 ppm [3] [%]	pest or weed control at 400 ppm [5] [%]	pest or weed control at 400 ppm [6] [%]	pest or weed control at 400 ppm [7] [%]	pest or weed control at 400 ppm [8] [%]	pest or weed control at 400 ppm [9] [%]	pest or weed control at 400 ppm [10] [%]	mortality at 200 ppm [4, 12] [%]	mortality at 200 ppm ([11]; foliar, foliar spray on squash) [%]	mortality at 400 ppm [1, 13] [%]	mortality at 24 ppm (corn rootworm; CRW rate 24.00 ppm) [%]	mortality at 400 ppm [4, 13] [%]	mortality at 400 ppm [11, 13] [%]	other results
Fc1cccc2c(NCCc3ccc(Cl)cc3Cl)ccnc12 [Example 76, N-[2-(2,4-dichlorophenyl)ethyl]-8-fluoro-4-quinolinamine]	particularly excellent activity																	mortality at 200 ppm ([1]; SAW, SM & MA RATE 200 PPM): 0%; SM RESULTS % ([1]; SAW, SM & MA RATE 200 PPM): 0%; LEAF SPOT [2]: - (0-19% control at 400 ppm); CRW RESULTS % (corn rootworm; CRW RATE 12.00 PPM): 0%; mortality at 12 ppm (corn rootworm; CRW RATE 12.00 PPM): 0%; LEAF BLOT [3]: +++ (90-100% control at 100 ppm); mortality at 200 ppm ([4]; SAW, SM & MA RATE 200 PPM): 0%; MA RESULTS % ([4]; SAW, SM & MA RATE 200 PPM): 0%; LEAF RUST [5]: +++ (90-100% control at 100 ppm); POWD MDEW [6]: ++ (90-100% control at 400 ppm); APPL SCAB [7]: + (20-89% control at 400 ppm); DOWN MDEW [8]: +++ (90-100% control at 100 ppm); GRAY MOLD [9]: - (0-19% control at 400 ppm); RICE BLAST [10]: +++ (90-100% control at 100 ppm)
CC(C)c1ccc(CCNc2ccnc3c(F)cccc23)cc1 [Example 114, N-[2-[4-(i-propyl)phenyl]ethyl]-8-fluoro-4-quinolinamine]	particularly excellent activity																	mortality at 400 ppm ([1]; SAW, SM & MA RATE 400 PPM): 100%; activity as miticides [1]: particularly excellent activity; LEAF SPOT [2]: +++ (90-100% control at 100 ppm); mortality at 24 ppm (corn rootworm; CRW RATE 24.00 PPM): 0%; LEAF BLOT [3]: +++ (90-100% control at 100 ppm); mortality at 400 ppm ([4]; SAW, SM & MA RATE 400 PPM): 30%; mortality at 400 ppm ([11]; SAW, SM & MA RATE 400 PPM): 70%; LEAF RUST [5]: +++ (90-100% control at 100 ppm); POWD MDEW [6]: +++ (90-100% control at 100 ppm); APPL SCAB [7]: - (0-19% control at 400 ppm); DOWN MDEW [8]: +++ (90-100% control at 100 ppm); activity against downy mildew [8]: particularly excellent activity; GRAY MOLD [9]: - (0-19% control at 400 ppm); RICE BLAST [10]: +++ (90-100% control at 100 ppm); activity against rice blast [10]: particularly excellent activity
Fc1cccc2c(OCCc3ccc(Cl)cc3)ccnc12 [Example 209, 4-[2-(4-chlorophenyl)-ethoxy]-8-fluoroquinoline]	particularly excellent activity	0	90 to 100	0	90 to 100	90 to 100	90 to 100	20 to 89	90 to 100	0 to 19	90 to 100							SM RESULTS % ([1]; rate 200 ppm, foliar spray on squash): 0%; CRW RESULTS % (corn rootworm; CRW rate 12.00 ppm): 0%
Cc1ccc(CCOc2ccnc3ccccc23)cc1 [Example 210, 4-[2-(4-methylphenyl)ethoxy]quinoline]	particularly excellent activity	0	20 to 89	0	90 to 100	90 to 100	90 to 100	0 to 19	90 to 100	0 to 19	90 to 100	0	0					activity against downy mildew [8]: particularly excellent activity
COc1ccccc1CCOc1ccnc2c(F)cccc12 [Example 228, 8-fluoro-4-[2-(2-methoxyphenyl)ethoxy]quinoline]	particularly excellent activity	0	20 to 89	0	90 to 100	90 to 100	90 to 100	90 to 100	90 to 100	0 to 19	90 to 100	0	0	0	0	80	0	
CC(C)c1ccc(CCOc2ccnc3c(F)cccc23)cc1 [Example 238, 8-fluoro-4-[2-(4-(i-propyl)phenyl)ethoxy]quinoline]	particularly excellent activity	100		0		90 to 100	90 to 100		90 to 100	20 to 89	90 to 100	100	0	0	0	0	100	activity as miticides [1]: particularly excellent activity
CC(C)c1ccc(CCCc2ccnc3c(F)cccc23)cc1 [Example 256, 8-fluoro-4-[3-(4-(i-propyl)phenyl)propyl]quinoline]	particularly excellent activity					90 to 100	90 to 100		90 to 100	0 to 19	90 to 100			0	100	0	100	
CC(C)(C)c1ccc(CCCc2ccnc3c(F)cccc23)cc1 [Example 260, 4-[3-[4-(t-butyl)phenyl]propyl]-8-fluoroquinoline]	particularly excellent activity	100	20 to 89	0	90 to 100	90 to 100	90 to 100	0 to 19	90 to 100	0 to 19	90 to 100	100	100	0	40	0	40	activity against rice blast [10]: particularly excellent activity
OC(c1ccc(F)cc1)(c1cncnc1)c1ccccc1Cl (stereo not drawn) [nuarimol, reference compound]																		RESULTS (CUCURBIT DOWNY MILDEW; nuarimol alone 0.25 ppm): 1.0; RESULTS (CUCURBIT DOWNY MILDEW; nuarimol alone 0.50 ppm): 1.0; RESULTS (CUCURBIT DOWNY MILDEW; nuarimol alone 1.00 ppm): 1.0; RESULTS (CUCURBIT DOWNY MILDEW; nuarimol alone 2.00 ppm): 1.0; RESULTS (CUCURBIT POWDERY MILDEW; nuarimol alone 0.25 ppm): 6.0; RESULTS (CUCURBIT POWDERY MILDEW; nuarimol alone 0.50 ppm): 7.0; RESULTS (CUCURBIT POWDERY MILDEW; nuarimol alone 1.00 ppm): 8.0; RESULTS (CUCURBIT POWDERY MILDEW; nuarimol alone 2.00 ppm): 9.0
